The target of one test is T1, recombinant Aurora A (Homo sapiens, UniProt O14965).
T1 construct: purchased Upstate 14-511
T1 sequence (O14965 1-403): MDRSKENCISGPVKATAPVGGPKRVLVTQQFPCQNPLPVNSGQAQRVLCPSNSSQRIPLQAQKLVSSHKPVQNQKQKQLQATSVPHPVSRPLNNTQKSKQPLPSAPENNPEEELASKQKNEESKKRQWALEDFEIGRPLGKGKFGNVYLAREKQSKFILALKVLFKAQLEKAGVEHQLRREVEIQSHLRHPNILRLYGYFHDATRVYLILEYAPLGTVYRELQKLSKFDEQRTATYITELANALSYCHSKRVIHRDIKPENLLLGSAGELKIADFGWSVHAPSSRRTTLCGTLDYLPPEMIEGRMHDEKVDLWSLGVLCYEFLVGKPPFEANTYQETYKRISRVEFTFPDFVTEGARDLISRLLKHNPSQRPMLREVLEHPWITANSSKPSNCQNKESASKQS
Briefly: Aurora A enzyme assay (IMAP fluorescence polarization, Tamra-PKAtide substrate). To be noted: 8 nM enzyme, 25 μM ATP, 100 nM Tamra-PKAtide, 2 hours at room temperature. Type of test: biochemical. How it is done:
(§1) An in vitro assay was developed that utilizes recombinant Aurora A or Aurora B as an enzyme source and a peptide based on PKA as the substrate.
Aurora A kinase assays were performed in low protein binding 384-well plates (Corning Inc). All reagents were thawed on ice. Compounds were diluted in 100% DMSO to desirable concentrations. […] For each reaction, 14 μl containing TAMRA-PKAtide, ATP, DTT and kinase buffer were combined with 1 μl diluted compound. The kinase reaction was started by the addition of 5 μl diluted enzyme. The reaction was allowed to run for 2 hours at room temperature. […] After an additional 2 hours, fluorescent polarization was measured using an Analyst AD (Molecular devices).
(§2) Dose-response curves were plotted from inhibition data generated each in duplicate, from 8 point serial dilutions of inhibitory compounds. Concentration of compound was plotted against kinase activity, calculated by degree of fluorescent polarization. To generate IC50 values, the dose-response curves were then fitted to a standard sigmoidal curve and IC50 values were derived by nonlinear regression analysis.
In general terms: In fluorescence polarisation assays a small probe gives low polarisation when free and higher when bound to something large.

In another test the target is T2, recombinant Aurora B (Homo sapiens, UniProt Q96GD4).
T2 construct: purchased Invitrogen pv3970
Nature of the test: Aurora B enzyme assay (IMAP fluorescence polarization, Tamra-PKAtide substrate). Type of test: biochemical. To be noted: 26 nM enzyme, 50 μM ATP, 100 nM Tamra-PKAtide, 2 hours at room temperature. As for the experimental part: as §1
Aurora A kinase assays were performed in low protein binding 384-well plates (Corning Inc). All reagents were thawed on ice. Compounds were diluted in 100% DMSO to desirable concentrations. Each reaction consisted of 26 nM enzyme (Aurora B, Invitrogen cat#pv3970), 100 nM Tamra-PKAtide (Molecular Devices, 5TAMRA-GRTGRRNSICOOH), 50 μM ATP (Roche), 1 mM DTT (Pierce), and kinase buffer (10 mM Tris, 10 mM MgCl2, 0.01% Tween 20). For each reaction, 14 μl containing TAMRA-PKAtide, ATP, DTT and kinase buffer were combined with 1 μl diluted compound. The kinase reaction was started by the addition of 5 μl diluted enzyme. The reaction was allowed to run for 2 hours at room temperature. The reaction was stopped by adding 60 μl IMAP beads (1:400 beads in progressive (94.7% buffer A: 5.3% buffer B) 1× buffer, 24 mM NaCl). After an additional 2 hours, fluorescent polarization was measured using an Analyst AD (Molecular devices).
as §2

Bounds are passed on as bounds.

T2 sequence (Q96GD4 whole entry): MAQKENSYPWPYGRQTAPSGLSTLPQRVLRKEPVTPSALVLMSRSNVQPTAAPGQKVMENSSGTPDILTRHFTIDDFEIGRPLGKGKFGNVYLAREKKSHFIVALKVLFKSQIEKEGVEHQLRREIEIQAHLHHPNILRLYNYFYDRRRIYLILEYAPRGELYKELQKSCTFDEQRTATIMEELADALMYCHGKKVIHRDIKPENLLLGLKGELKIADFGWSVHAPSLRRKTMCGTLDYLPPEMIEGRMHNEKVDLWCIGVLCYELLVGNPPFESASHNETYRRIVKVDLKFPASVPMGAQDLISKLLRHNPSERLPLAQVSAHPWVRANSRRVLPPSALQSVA

Turning to `CSc1cn2c(-c3cc[nH]n3)cnc2c(Nc2cc(C)ns2)n1` [Example 4-27], the IC50 (commonly the concentration that gives 50% inhibition) at recombinant Aurora A is 697 nM; on recombinant Aurora B, 223 nM.

As for `Cc1cc(Nc2nc(SC3CC3)cn3c(-c4cn[nH]c4)cnc23)sn1` [Example 4-25], the IC50 at recombinant Aurora B is under 1000 nM.

With `COc1ccccc1Sc1cn2c(-c3cn[nH]c3)cnc2c(Nc2cc(C)ns2)n1` [Example 4-10], the IC50 came to 74 nM at recombinant Aurora A and 24 nM on recombinant Aurora B.

As to `CC(=O)Nc1ccc(Sc2cn3c(-c4cn[nH]c4)cnc3c(Nc3cc(C)ns3)n2)cc1` [Example 4-14], the IC50 at recombinant Aurora A is 9 nM; on recombinant Aurora B it was 4 nM.

For the compound `Cc1cc(Nc2nc(Sc3nccs3)cn3c(-c4cn[nH]c4)cnc23)sn1` [Example 4-22], at recombinant Aurora B, the IC50 came to 7 nM.

`Cc1cc(Nc2nc(Sc3ccc(NC(=O)C4CC4)cc3)cn3c(-c4cn[nH]c4)cnc23)sn1` [Example 4-19]: the results for the IC50 on recombinant Aurora A and on recombinant Aurora B were 25 nM and 67 nM, respectively.

In the case of `CNc1ncc(-c2cnc3c(Nc4cc(C)ns4)nc(SC)cn23)s1` [Example 4-31], the IC50 was 7540 nM on recombinant Aurora A and 710 nM on recombinant Aurora B.

As for `Cc1cc(Nc2nc(Sc3ncn[nH]3)cn3c(-c4cn[nH]c4)cnc23)sn1` [Example 4-24], the 50% inhibitory concentration (IC50) at recombinant Aurora B was determined as 35 nM.

As for `CSc1cn2c(-c3cccc(C)c3)cnc2c(Nc2cc(C)ns2)n1` [Example 4-32], the concentration for half-maximal inhibition (IC50) is 14200 nM at recombinant Aurora A and over 3000 nM at recombinant Aurora B.

As to `CSc1cn2c(-c3cc(C4CC4)[nH]n3)cnc2c(Nc2cc(C)ns2)n1` [Example 4-28], the IC50 at recombinant Aurora A is 16500 nM; at recombinant Aurora B, over 3000 nM.

On to `Cc1cc(Nc2nc(Sc3ccc(Cl)cc3)cn3c(-c4cn[nH]c4)cnc23)sn1` [Example 4-13], for which, at recombinant Aurora B, the IC50 was 612 nM.

With `Cc1cc(Nc2nc(Sc3ccccn3)cn3c(-c4cn[nH]c4)cnc23)sn1` [Example 4-5], the IC50 at recombinant Aurora B came to 432 nM.

For the compound `CNC(=O)CSc1cn2c(-c3cn[nH]c3)cnc2c(Nc2cc(C)ns2)n1` [Example 4-6], the half-inhibitory concentration (IC50) at recombinant Aurora B worked out at 15 nM.

Regarding `CSc1cn2c(-c3ccco3)cnc2c(Nc2cc(C)ns2)n1` [Example 4-30], the IC50 on recombinant Aurora A came to 2530 nM; at recombinant Aurora B, 1320 nM.

Consider `Cc1cc(Nc2nc(Sc3ccncc3)cn3c(-c4cn[nH]c4)cnc23)sn1` [Example 4-21], for which the IC50 on recombinant Aurora B worked out at 285 nM.

For `Cc1cc(Nc2nc(Sc3ccccc3Cl)cn3c(-c4cn[nH]c4)cnc23)sn1` [Example 4-4], the results for the IC50 on recombinant Aurora A and on recombinant Aurora B were 600 nM and 442 nM, respectively.

Take `Cc1cc(Nc2nc(SC3CCNC3)cn3c(-c4cnn(C)c4)cnc23)sn1` (centres unmarked) [Example 4-26]: the half-maximal inhibitory concentration (IC50) is over 5000 nM on recombinant Aurora A and over 3000 nM on recombinant Aurora B.

`COc1cccc(Sc2cn3c(-c4cn[nH]c4)cnc3c(Nc3cc(C)ns3)n2)c1` [Example 4-11]: the IC50 on recombinant Aurora A was 50 nM; on recombinant Aurora B it was 114 nM.

`Cc1cc(Nc2nc(Sc3cccc(Cl)c3)cn3c(-c4cn[nH]c4)cnc23)sn1` [Example 4-20]: the IC50 at recombinant Aurora B came to 10 nM.

For the compound `Cc1cc(Nc2nc(SCC(C)O)cn3c(-c4cn[nH]c4)cnc23)sn1` (centres unmarked) [Example 4-18], the 50% inhibitory concentration (IC50) at recombinant Aurora B amounted to 9 nM.

In the case of `Cc1cc(Nc2nc(Sc3ncc[nH]3)cn3c(-c4cn[nH]c4)cnc23)sn1` [Example 4-23], the IC50 at recombinant Aurora B came to 66 nM.

`CSc1cn2c(-c3cn[nH]c3)cnc2c(Nc2cc(C)ns2)n1` [Example 4-3]: the IC50 at recombinant Aurora B was 11 nM.

As to `Cc1cc(Nc2nc(Sc3nc4ccccc4s3)cn3c(-c4cn[nH]c4)cnc23)sn1` [Example 4-1], the half-maximal inhibitory concentration (IC50) on recombinant Aurora A came to 661 nM.

As for `COc1ccc(Sc2cn3c(-c4cn[nH]c4)cnc3c(Nc3cc(C)ns3)n2)cc1` [Example 4-12], at recombinant Aurora B, the IC50 was 24 nM.

The values are drawn from patent US7511040B2, “Imidazopyrazines as protein kinase inhibitors” (Schering Corporation, priority 2006, dated 2009).
